Test results from paper PMC11615764, “Discovery of Ketal‐Ester Ionizable Lipid Nanoparticle with Reduced Hepatotoxicity, Enhanced Spleen Tropism for mRNA Vaccine Delivery” (Advanced Science, 2024).
Entries after “also recorded” stand apart in the source; their conditions may differ. Like-named read-outs stand apart in the source and are kept apart here.

What was measured:
[1] = Encapsulation efficiency of LNPs, RiboGreen accessibility assay; type: physicochemical; settings: LNP: ionizable lipid/DSPC/Chol/DMG‐PEG2000 50:10:38.5:1.5, N/P 6
Experimental: (§1) Particle size and polydispersity index (PDI) were determined by dynamic light scattering (DLS), apparent pKa was assessed using 6‐(p‐toluidino)‐2‐naphthalenesulfonic acid (TNS) dye‐binding assay, while encapsulation efficiency was evaluated by a RiboGreen accessibility assay.
(§2) The sizes of the LNP formulations were assessed by DLS (Malvern Zetasizer Pro). Quant‐it RiboGreen assay (ThermoFisher Scientific, Cat# R11490) was used to measure the encapsulation efficiency of the LNP formulations. Briefly, LNPs treated by 1% (v/v) Triton X‐100 (Adamas‐beta) to disrupt LNP structure and release mRNA and untreated LNPs were diluted to a concentration below 2 µg mRNA/mL, then reacted with an equal volume of RiboGreen assay solution at a 200‐fold dilution. Standard curves were generated within the range between 0.0 to 2.0 µg mRNA/mL using a series of free mRNA solutions with or without 1% v/v Triton X‐100. The concentrations of free mRNA and total mRNA in the formulation were determined using bulk fluorescent reading (excitation: 490 nm, emission: 535 nm) of the sample against the corresponding standard curves. The amount of RNA loaded into the LNPs (internal RNA) was calculated by subtracting the values obtained in 1 x TE (external RNA) from 1 x TE + 1% Triton X‐100 (total RNA). Subsequently, the encapsulation efficiency was calculated as the percentage obtained by dividing the amount of internal RNA by the total RNA amount.

[2] = LNP particle size and PDI by dynamic light scattering; type: physicochemical; settings: LNP: ionizable lipid/DSPC/Chol/DMG‐PEG2000 50:10:38.5:1.5, N/P 6; DLS
Experimental: as §1, §2

[3] = LNP apparent pKa, TNS dye‐binding assay; type: physicochemical; settings: apparent pKa of the LNP
Experimental: Following the formulation methods of SpikeVax and Onpattro, all KEL LNPs were formulated with standard helper lipids: DSPC, Chol, and DMG‐PEG2000 at a molar ratio of Ionizable lipid/DSPC/Chol/DMG‐PEG2000 50:10:38.5:1.5, and at an ionizable lipid to RNA charge ratio (N/P) of 6.^[ [25] ^] Particle size and polydispersity index (PDI) were determined by dynamic light scattering (DLS), apparent pKa was assessed using 6‐(p‐toluidino)‐2‐naphthalenesulfonic acid (TNS) dye‐binding assay, while encapsulation efficiency was evaluated by a RiboGreen accessibility assay.
A series of buffers with pH values varying by 1 between 3.0 and 12.0 were prepared by titrating a solution containing 10 mM citrate, 10 mM phosphate, 10 mM borate, and 150 mM NaCl with 1.0 M HCl and 0.5 M NaOH. LNPs were diluted to 75 µM ionizable lipid, TNS to 6 µM in these buffers. Fluorescence intensity was determined using a Thermo Scientific 3020 spectrophotometer (325 nm excitation/435 nm emission). With the resulting fluorescence values, a sigmoidal plot of fluorescence versus buffer pH was created. The […] inflection point of this curve was the apparent pKa of the LNP formulation.

Balb/c mice = experiment: In vivo firefly luciferase mRNA expression, whole‐body bioluminescence; parameters: species or system mouse; settings: mLuci LNP, female Balb/c mice; for delivery potency (whole‐body luciferase), IV and IM: IV 1 mg/kg and IM 0.25 mg/kg; for whole‐body luciferase activity after IM administration: IM 0.25 mg/kg, compared with DLin‐MC3‐DMA LNP; for whole‐body luciferase activity after IV administration: IV 1 mg/kg
Experimental: Subsequently, the formulated KEL LNPs were evaluated for their in vivo delivery efficiency (Figure 1C). Wild‐type female Balb/c mice were administered with a single dose of LNPs containing firefly luciferase mRNA (mLuci) via IV or intramuscular (IM) injection (Figure 2A,B), followed by whole‐body luciferase activity assay. A control group receiving DLin‐MC3‐DMA‐based LNP was included in each experiment to facilitate comparisons across experiments.
Balb/c mice were injected intramuscularly (0.25 mg k^−1g) or intravenously (1 mg k^−1g) with LNPs. At 6 or 24 hrs post‐administration, mice were injected intraperitoneally with 150 mg k^−1g of D‐luciferin monosodium salt (ThermoFisher) and imaged using the in vivo imaging system (IVIS Lumina LT Series III) 10 min post intraperitoneally. 1 × PBS (IM: 50 µL; IV: 200 µL) was injected as a negative control.

293T cells [4] = experiment: Cell Counting Kit‐8 cytotoxicity assay; settings: lipid alone at 50 µM, CCK8, 48 h
human liver microsomes = experiment: Microsomal stability of ionizable lipids, human; settings: 0.5 mg protein/mL, NADPH and UDPGA
[5] = Biodegradability of LNPs after IV injection, ionizable lipid in plasma by LC‐MS/MS; settings: mLuci LNP IV 0.5 mg/Kg, mice
293T cells [6] = settings: 50 µM
[7] = mouse, in vivo, iv, 0.5 mg/kg

| Encapsulation efficiency (%) [1] [%] | PDI [2] | Size (nm) [2] [nm] | pKa [3] | Compound | delivery potency (whole‐body luciferase), IV and IM (Balb/c mice) | whole‐body luciferase activity after IM administration (Balb/c mice) | cell viability (293T cells [4]) | remaining after 120 minutes (human liver microsomes) | decline of ionizable lipid level in plasma during the first 6 hrs [5] | ionizable lipid level in plasma after 12 hrs [5] [ng/mL] | ionizable lipid level in plasma after 24 hrs [5] | whole‐body luciferase activity after IV administration (Balb/c mice) | cell viability (293T cells [6]) | decline of ionizable lipid level in plasma during the first 6 hrs [7] | whole‐body luciferase activity after IV administration (Balb/c mice; 1 mg/kg) |
| --- | --- | --- | --- | --- | --- | --- | --- | --- | --- | --- | --- | --- | --- | --- | --- |
| 93.3 | 0.34 | 110.3 | 6.88 | CCCCCCCCCCCOC(=O)CCCCCC1(CCCCCC(=O)OCCCCCCCCCCC)OCC(CCN(C)C)O1 (stereo not drawn) [KEL11] | further decrease in potency compared to KEL10 | – | – | – | – | – | – | – | – | – | – |
| 98.2 | 0.05 | 125.0 | 7.03 | CCCCCCCCCCCNC(=O)CCCCCC1(CCCCCCCC(=O)NC(CCCCCCCC)CCCCCCCC)OCC(CCN(C)C)O1 (stereo not drawn) [KEL9] | significantly reduced delivery potency; also recorded: lower delivery efficiency for both IV and IM administration | – | – | – | – | – | – | – | – | – | – |
| 97.2 | 0.10 | 61.73 | 5.91 | CCCCCCCCCCCOC(=O)CCCCCC1(CCCCCCCC(=O)OC(CCCCCCCC)CCCCCCCC)OCC(CCN(C)CCC)O1 (stereo not drawn) [KEL7] | lower delivery efficiency for both IV and IM administration | – | – | – | – | – | – | – | – | – | – |
| 91.0 | 0.16 | 118.1 | 7.40 | CCCCCCCCCCCOC(=O)CCCCCC1(CCCCCCCC(=O)OC(CCCCCCCC)CCCCCCCC)OCC(CCCCN(C)C)O1 (stereo not drawn) [KEL4] | considerable potency | – | – | – | – | – | – | – | – | – | – |
| 89.3 | 0.16 | 98.15 | 6.86 | CCCCCCCCCCCOC(=O)CCCCCC1(CCCCCCCC(=O)OC(CCCCCCCC)CCCCCCCC)OCC(CCCN(C)C)O1 (stereo not drawn) [KEL3] | higher potency than KEL1 and KEL4 | significantly higher levels of luciferase activity than the DLin‐MC3‐DMA LNP | – | – | – | – | – | – | – | – | – |
| – | – | – | – | CCCCCCCCCCCOC(=O)CCCCCN(CCO)CCCCCCCC(=O)OC(CCCCCCCC)CCCCCCCC [SM‐102] | – | – | over 80% | about 80% | reduced faster than (4S)‐KEL12 | < 10 | undetectable | – | – | – | – |
| 97.5 | 0.06 | 80.34 | 6.89 | CCCCCCCCCCCOC(=O)CCCCCC1(CCCCCCCC(=O)OC(CCCCCCCC)CCCCCCCC)OCC(CCN(CC)CC)O1 (stereo not drawn) [KEL6] | – | – | – | – | – | – | – | – | – | – | – |
| 96.5 | 0.07 | 78.44 | 6.86 | CCCCCCCCCCCOC(=O)CCCCCC1(CCCCCCCC(=O)OC(CCCCCCCC)CCCCCCCC)OCC(CCN(C)CC)O1 (stereo not drawn) [KEL5] | – | – | – | – | – | – | – | – | – | – | – |
| 96.5 | 0.10 | 69.23 | 6.09 | CCCCCCCCC(CCCCCCCC)OC(=O)CCCCCCCC1(CCCCCCCC(=O)OC(CCCCCCCC)CCCCCCCC)OCC(CCN(C)C)O1 (stereo not drawn) [KEL10] | potency diminished compared to KEL2 | – | – | – | – | – | – | lower potency than those with pKa of 6.7‐7.0 | – | – | – |
| 97.6 | 0.03 | 71.68 | 6.17 | CCCCCCCCCCCOC(=O)CCCCCC1(CCCCCCCC(=O)OC(CCCCCCCC)CCCCCCCC)OCC(CCN(CC)C(C)C)O1 (stereo not drawn) [KEL8] | – | – | – | – | – | – | – | lower potency than those with pKa of 6.7‐7.0 | – | – | – |
| 94.9 | 0.04 | 89.54 | 6.93 | CCCCCCCCCCC(=O)OCCCCCCC1(CCCCCCCC(=O)OC(CCCCCCCC)CCCCCCCC)OCC(CCN(C)C)O1 (stereo not drawn) [KEL12] | higher potency than LNPs with either double branched tails (KEL10) or double linear tails (KEL11) | significantly higher luciferase activity than DLin‐MC3‐DMA LNP | – | – | – | – | – | significantly higher luciferase activity than DLin‐MC3‐DMA LNP by IV | – | – | – |
| 95.0 | 0.12 | 76.72 | 5.72 | CCCCCCCCCCCOC(=O)CCCCCC1(CCCCCCCC(=O)OC(CCCCCCCC)CCCCCCCC)OCC(CN(C)C)O1 (stereo not drawn) [KEL1] | lower delivery efficiency for both IV and IM administration | – | – | – | – | – | – | – | – | – | – |
| 91.0 | 0.09 | 99.68 | 6.44 | CCCCCCCCCCC(=O)OCCCCCCC1(CCCCCCCCOC(=O)C(CCCCCCCC)CCCCCCCC)OCC(CCN(C)C)O1 (stereo not drawn) [KEL13] | higher potency than LNPs with either double branched tails (KEL10) or double linear tails (KEL11) | significantly higher luciferase activity than DLin‐MC3‐DMA LNP | – | – | – | – | – | – | – | – | lower potency than those with pKa of 6.7‐7.0 |
| 92.3 | 0.03 | 70.27 | 6.88 | CCCCCCCCCCCOC(=O)CCCCCC1(CCCCCCCC(=O)OC(CCCCCCCC)CCCCCCCC)OCC(CCN(C)C)O1 (stereo not drawn) [KEL2] | higher potency than KEL1 and KEL4; also recorded: higher potency than LNPs with either double branched tails (KEL10) or double linear tails (KEL11) | significantly higher levels of luciferase activity than the DLin‐MC3‐DMA LNP | – | – | – | – | – | – | – | – | – |

| Compound | Encapsulation efficiency (%) [1] [%] | PDI [2] | Size (nm) [2] [nm] | pKa [3] | delivery potency (whole‐body luciferase), IV and IM (Balb/c mice) | whole‐body luciferase activity after IM administration (Balb/c mice) | cell viability (293T cells [4]) | remaining after 120 minutes (human liver microsomes) | decline of ionizable lipid level in plasma during the first 6 hrs [5] | ionizable lipid level in plasma after 12 hrs [5] [ng/mL] | ionizable lipid level in plasma after 24 hrs [5] | whole‐body luciferase activity after IV administration (Balb/c mice) | cell viability (293T cells [6]) | decline of ionizable lipid level in plasma during the first 6 hrs [7] | whole‐body luciferase activity after IV administration (Balb/c mice; 1 mg/kg) |
| --- | --- | --- | --- | --- | --- | --- | --- | --- | --- | --- | --- | --- | --- | --- | --- |
| CCCCC/C=C\C/C=C\CCCCCCCCC(CCCCCCCC/C=C\C/C=C\CCCCC)OC(=O)CCCN(C)C [DLin‐MC3‐DMA, reference compound] | 96.7 | 0.15 | 72.70 | 6.33 | – | – | – | – | – | – | – | – | over 80% | reduced faster than (4S)‐KEL12 | – |
